Results as given in PMC5372594 (International Journal of Molecular Sciences, 2017).
Peptide text beside a SMILES is read from it.

What was measured:
GLP-1R [1] = target: T1, GLP-1R (Homo sapiens, UniProt P43220); assay: CHO cell cAMP accumulation assay (ELISA); assay type: cell-based; settings: 30 min incubation, 0.5 mM IBMX, 3-parameter non-linear regression, n = 3
T1 construct: expressed in transfected cells
Description: CHO cells were stably transfected with GLP-1R and grown in conditions described above. […] After 4-h culture, cells were treated with compounds diluted in assay buffer to concentrations within the 10^−4–10^4 nM range and incubated for 30 min. Cells were lysed by freezing and thawing three times. The samples were then assayed according to the cAMP ELISA assay kit protocol (Jiancheng, Nanjing, China).

GLP-1R [2] = target: T1, GLP-1R; assay: CRE-luciferase reporter-gene assay, CHO cells stably expressing human GLP-1 receptor; assay type: cell-based; settings: 4-h culture with peptide, 10-step 5-fold dilution from 250 nmol/L, mean ± SEM, n = 3
Description: A cyclic adenosine monophosphate response element (CRE)-luciferase based reporter-gene assays, as a surrogate for cyclic adenosine monophosphate (cAMP) formation, were used to measure the abilities of the analogs to activate GLP-1R.
Cells were grown at 37 °C with 5% CO2 in Dulbecco’s modified Eagle’s medium-F12 supplemented with 10% fetal bovine serum (FBS), 4.5 g/L glucose, 100 units/ml penicillin, 100 mg/mL streptomycin, 0.6 mg/mL hygromycin B and 1 mg/mL G418. […] Each well contained 20,000 cells. The initial concentration of each analog and positive control was 250 nmol/L, which was diluted 5 times to produce a 10-step gradient, and each well contained 20 μL. After 4-h culture, 100 μL of a chemical light-emitting substrate was added to each well. Fluorescence was measured with an EnVision 2104 Multilabel Reader (PerkinElmer, Houston, TX, USA) after a 40-min oscillation at 25 °C.

[3] = mouse, in vivo
Description: (§1) Retro orbital blood collections were performed on mice at different time points (0, 1, 2, 3, 4, 6, 8, 10 and 12 h).

in vivo = settings: male, C57BL/6J, mouse
Description: as §1

trypsin [4] = assay: Trypsin resistance measured by HPLC (residue rate); assay type: in vitro ADME
Description: The substrate was hydrolyzed with trypsin, and the peak area of the sample, which added the stop-buffer at the start point, was set to 100%.

trypsin [5] = assay: trypsin; settings: up to 60 min

T1 sequence (P43220 24-463): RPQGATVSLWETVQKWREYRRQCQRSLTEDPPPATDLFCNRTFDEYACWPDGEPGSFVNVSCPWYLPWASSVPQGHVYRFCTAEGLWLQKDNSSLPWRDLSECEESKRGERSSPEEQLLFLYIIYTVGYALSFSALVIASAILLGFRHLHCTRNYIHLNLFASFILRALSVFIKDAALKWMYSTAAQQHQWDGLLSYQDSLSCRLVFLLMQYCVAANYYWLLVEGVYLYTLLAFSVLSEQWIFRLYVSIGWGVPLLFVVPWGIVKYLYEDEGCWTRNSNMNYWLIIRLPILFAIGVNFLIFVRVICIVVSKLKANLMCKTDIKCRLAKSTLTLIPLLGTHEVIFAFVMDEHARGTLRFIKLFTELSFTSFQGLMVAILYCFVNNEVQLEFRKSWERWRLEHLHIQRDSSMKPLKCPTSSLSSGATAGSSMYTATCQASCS

With `CC[C@H](C)[C@H](NC(=O)[C@H](Cc1ccccc1)NC(=O)[C@H](CC(C)C)NC(=O)[C@H](CC(C)C)NC(=O)[C@@H](NC(=O)[C@H](C)NC(=O)[C@H](CCC(=O)O)NC(=O)[C@H](CCC(=O)O)NC(=O)[C@H](CCC(=O)O)NC(=O)[C@H](CCSC)NC(=O)[C@H](CCC(N)=O)NC(=O)[C@H](CCSC)NC(=O)[C@H](CO)NC(=O)[C@H](CC(C)C)NC(=O)[C@H](CC(=O)O)NC(=O)[C@H](CO)NC(=O)[C@@H](NC(=O)[C@H](Cc1ccccc1)NC(=O)[C@@H](NC(=O)CNC(=O)[C@H](CCC(=O)O)NC(=O)CNC(=O)[C@@H](N)Cc1c[nH]cn1)[C@@H](C)O)[C@@H](C)O)C(C)C)C(=O)N[C@@H](CCC(=O)O)C(=O)N[C@@H](Cc1c[nH]c2ccccc12)C(=O)N[C@@H](CC(C)C)C(=O)N[C@@H](CCSC)C(=O)N[C@@H](CC(N)=O)C(=O)NCC(=O)NCC(=O)N1CCC[C@H]1C(=O)N[C@@H](CO)C(=O)N[C@@H](CO)C(=O)NCC(=O)N[C@@H](C)C(=O)N1CCC[C@H]1C(=O)N1CCC[C@H]1C(=O)N1CCC[C@H]1C(=O)N[C@@H](CO)C(=O)N[C@@H](CS)C(=O)O` [TSME-1] (H-HGEGTFTSDLSMQMEEEAVLLFIEWLMNGGPSSGAPPPSC-OH) the EC50 (GLP-1R [1]) was 1.1 nM, the EC50 (GLP-1R [2]) was 0.38 nM and the Relative bioavailability [3] was 0.881%. For the same molecule, the “Time to peak concentration” value ([3]; po) was “An hour”, the AUC(0-t) (in vivo; po) was 0.56 ± 0.15 ng·h/mL and the Cmax (in vivo; po, 2.12 mg/kg) was 0.2 ± 0.05 ng/mL. For the same molecule, the AUC(0-t) (in vivo; sc) was 3.17 ± 0.72 ng·h/mL, the “Residue rate at 30 min” value (trypsin [4]) was 100% ± 0% and the remaining at 1 h (trypsin [4]; isolated enzyme trypsin) was 100%.

`CC[C@H](C)[C@H](NC(=O)[C@H](Cc1ccccc1)NC(=O)[C@H](CC(C)C)NC(=O)[C@@H](NC(=O)[C@@H](NC(=O)[C@H](C)NC(=O)[C@H](CCC(=O)O)NC(=O)[C@H](CCC(=O)O)NC(=O)[C@H](CCC(=O)O)NC(=O)[C@H](CCSC)NC(=O)[C@H](CCC(N)=O)NC(=O)[C@@H](NC(=O)[C@H](CO)NC(=O)[C@H](CC(C)C)NC(=O)[C@H](CC(=O)O)NC(=O)[C@H](CO)NC(=O)[C@@H](NC(=O)[C@H](Cc1ccccc1)NC(=O)[C@@H](NC(=O)CNC(=O)[C@H](CCC(=O)O)NC(=O)CNC(=O)[C@@H](N)Cc1c[nH]cn1)[C@@H](C)O)[C@@H](C)O)C(C)C)C(C)C)C(C)C)C(=O)N[C@@H](CCC(=O)O)C(=O)N[C@@H](Cc1c[nH]c2ccccc12)C(=O)N[C@@H](CC(C)C)C(=O)N[C@H](C(=O)N[C@@H](CC(N)=O)C(=O)NCC(=O)NCC(=O)N1CCC[C@H]1C(=O)N[C@@H](CO)C(=O)N[C@@H](CO)C(=O)NCC(=O)N[C@@H](C)C(=O)N1CCC[C@H]1C(=O)N1CCC[C@H]1C(=O)N1CCC[C@H]1C(=O)N[C@@H](CO)C(=O)N[C@@H](CS)C(=O)O)C(C)C` [TSME-3] (H-HGEGTFTSDLSVQMEEEAVVLFIEWLVNGGPSSGAPPPSC-OH) gave an EC50 (GLP-1R [2]) of 19.2 nM.

`CC[C@H](C)[C@H](NC(=O)[C@H](Cc1ccccc1)NC(=O)[C@H](CC(C)C)NC(=O)[C@H](Cc1ccc(O)cc1)NC(=O)[C@@H](NC(=O)[C@H](C)NC(=O)[C@H](CCC(=O)O)NC(=O)[C@H](CCC(=O)O)NC(=O)[C@H](CCC(=O)O)NC(=O)[C@H](CCSC)NC(=O)[C@H](CCC(N)=O)NC(=O)[C@H](CCSC)NC(=O)[C@H](CO)NC(=O)[C@H](CC(C)C)NC(=O)[C@H](CC(=O)O)NC(=O)[C@H](CO)NC(=O)[C@@H](NC(=O)[C@H](Cc1ccccc1)NC(=O)[C@@H](NC(=O)CNC(=O)[C@H](CCC(=O)O)NC(=O)CNC(=O)[C@@H](N)Cc1c[nH]cn1)[C@@H](C)O)[C@@H](C)O)C(C)C)C(=O)N[C@@H](CCC(=O)O)C(=O)N[C@@H](Cc1c[nH]c2ccccc12)C(=O)N[C@@H](CC(C)C)C(=O)N[C@@H](CCSC)C(=O)N[C@@H](CC(N)=O)C(=O)NCC(=O)NCC(=O)N1CCC[C@H]1C(=O)N[C@@H](CO)C(=O)N[C@@H](CO)C(=O)NCC(=O)N[C@@H](C)C(=O)N1CCC[C@H]1C(=O)N1CCC[C@H]1C(=O)N1CCC[C@H]1C(=O)N[C@@H](CO)C(=O)N[C@@H](CS)C(=O)O` [TSME-4] (H-HGEGTFTSDLSMQMEEEAVYLFIEWLMNGGPSSGAPPPSC-OH) gave an EC50 (GLP-1R [2]) of 31.2 nM.

`CC[C@H](C)[C@H](NC(=O)[C@H](CC(C)C)NC(=O)[C@H](Cc1c[nH]c2ccccc12)NC(=O)[C@H](CCC(=O)O)NC(=O)[C@@H](NC(=O)[C@H](Cc1ccccc1)NC(=O)[C@H](CC(C)C)NC(=O)[C@H](Cc1ccc(O)cc1)NC(=O)[C@@H](NC(=O)[C@H](C)NC(=O)[C@H](CCC(=O)O)NC(=O)[C@H](CCC(=O)O)NC(=O)[C@H](CCC(=O)O)NC(=O)[C@H](CCSC)NC(=O)[C@H](CCC(N)=O)NC(=O)[C@@H](NC(=O)[C@H](CO)NC(=O)[C@H](CC(C)C)NC(=O)[C@H](CC(=O)O)NC(=O)[C@H](CO)NC(=O)[C@@H](NC(=O)[C@H](Cc1ccccc1)NC(=O)[C@@H](NC(=O)CNC(=O)[C@H](CCC(=O)O)NC(=O)CNC(=O)[C@@H](N)Cc1c[nH]cn1)[C@@H](C)O)[C@@H](C)O)[C@@H](C)CC)C(C)C)[C@@H](C)CC)C(=O)N[C@@H](CC(N)=O)C(=O)NCC(=O)NCC(=O)N1CCC[C@H]1C(=O)N[C@@H](CO)C(=O)N[C@@H](CO)C(=O)NCC(=O)N[C@@H](C)C(=O)N1CCC[C@H]1C(=O)N1CCC[C@H]1C(=O)N1CCC[C@H]1C(=O)N[C@@H](CO)C(=O)N[C@@H](CS)C(=O)O` [TSME-5] (H-HGEGTFTSDLSIQMEEEAVYLFIEWLINGGPSSGAPPPSC-OH) gave an EC50 (GLP-1R [2]) of 8.83 nM.

With “HGEGTFTSDLSMQMEEEAVLLFIEWLMNGGPSSGAPPPSC” the not cleaved (trypsin [5]) was 100% at 60 min.
